This data set in a line: logP by HPLC on reversed-phase column (EEC Directive 79/831 Annex V.A8). Particulars: EEC Directive 79/831 Annex V.A8.
Where [1] appears, read: HPLC on reversed-phase column (C 18).
The mark [2] stands for this setting: HPLC on a reversed-phase column (C 18).

As a reminder, the logP is a log measure of how a compound divides between an organic and an aqueous phase. With `C#CCOc1ccccc1NC(=O)c1c(C(F)F)nn(C)c1F` [compound 26], the log partition coefficient (logP) under setting [1] came out at 2.71.
The compound `Cn1nc(C(F)F)c(C(=O)Nc2ccccc2-c2cccc([Si](C)(C)C)c2)c1F` [compound 133] came in with a logP under setting [1] of 4.83.
Same read-out and setting: with `Cn1nc(C(F)F)c(C(=O)Nc2cccc(Br)c2)c1F` [compound 189] the figure was 2.82; with `Cc1ccccc1-c1cccc(NC(=O)c2c(C(F)F)nn(C)c2Cl)c1` [compound 202], 3.83.
`C/C(=N\OC(C)(C)C)c1ccc(-c2cccc(NC(=O)c3c(C(F)F)nn(C)c3Cl)c2)cc1` [compound 248] displayed a logP under setting [2] of 5.51.
With `Cn1nc(C(F)F)c(C(=O)Nc2ccc3c(c2)OC(F)(F)O3)c1Cl` [compound 198], the logP under setting [1] worked out at 3.11.
Under setting [2], `Cn1nc(C(F)F)c(C(=O)Nc2cccc(Sc3ccc(C(C)(C)C)cc3)c2)c1Cl` [compound 259] returned a logP of 5.17.
`Cn1nc(C(F)F)c(C(=O)Nc2ccccc2-c2ccc(OC(F)(F)F)cc2)c1F` [compound 145] had a log partition coefficient (logP) under setting [1] of 3.92.
Same read-out and setting: with `Cn1nc(C(F)F)c(C(=O)Nc2ccccc2-c2ccc(C(C)(C)C)cc2)c1F` [compound 109] the figure was 4.73.
The same measure, in the same setting: for `Cn1nc(C(F)F)c(C(=O)Nc2ccccc2OCc2cc(Cl)ccc2Cl)c1F` [compound 162] the value was 4.56.
Still for that read-out and setting: with `Cn1nc(C(F)F)c(C(=O)Nc2cccc(Cl)c2SCC(F)(F)F)c1F` [compound 39] the figure was 3.73; with `Cn1nc(C(F)F)c(C(=O)Nc2cccc(Br)c2)c1Cl` [compound 190], 3.04.
Compound `Cn1nc(C(F)F)c(C(=O)Nc2cc(Cl)ccc2SCC(F)(F)F)c1F` [compound 40] returned a log partition coefficient (logP) under setting [1] of 3.92.
Compound `Cc1cc(C)c(-c2cccc(NC(=O)c3c(C(F)F)nn(C)c3F)c2)c(C)c1` [compound 211] had a logP under setting [1] of 4.34.
Still for that read-out and setting: with `Cn1nc(C(F)F)c(C(=O)Nc2cccc(-c3cccc(OC(F)(F)F)c3)c2)c1Cl` [compound 241] the figure was 4.31; with `Cn1nc(C(F)F)c(C(=O)Nc2ccccc2-c2cccc([Si](C)(C)C)c2)c1Cl` [compound 132], 5.25.
Still for that read-out and setting: with `CC(C)Oc1ccc(-c2ccccc2NC(=O)c2c(C(F)F)nn(C)c2Cl)cc1` [compound 114] the figure was 4.36.
The same measure, in the same setting: for `Cc1cc(C)cc(-c2ccccc2NC(=O)c2c(C(F)F)nn(C)c2F)c1` [compound 81] the value was 4.11; for `Cn1nc(C(F)F)c(C(=O)Nc2cccc(-c3ccc(OC(F)(F)F)cc3)c2)c1F` [compound 243], 4.14; for `Cn1nc(C(F)F)c(C(=O)Nc2cccc(-c3ccc(C(F)(F)F)cc3)c2)c1F` [compound 225], 3.99.
In turn, `Cn1nc(C(F)F)c(C(=O)Nc2ccc(Oc3ccccc3)cc2)c1F` [compound 268] displayed a logP under setting [2] of 3.29.
`C/C(=N\OC(C)(C)C)c1ccc(-c2cccc(NC(=O)c3c(C(F)F)nn(C)c3F)c2)cc1` [compound 247] yielded a log partition coefficient (logP) under setting [2] of 5.28.
`CC(C)c1ccc(-c2cccc(NC(=O)c3c(C(F)F)nn(C)c3Cl)c2)cc1` [compound 216]: the lipophilicity (logP) under setting [1] is given as 4.68.
On to `CC(C)c1cccc(-c2ccccc2NC(=O)c2c(C(F)F)nn(C)c2F)c1` [compound 93], for which the logP under setting [1] turned out to be 4.30.
On the same count and under the same terms, for `CCC(C)Oc1cc(NC(=O)c2c(C(F)F)nn(C)c2F)ccc1C` (centres unmarked) [compound 179] the value was 3.85; for `Cn1nc(C(F)F)c(C(=O)Nc2cccc(-c3ccc(Cl)cc3Cl)c2)c1F` [compound 229], 4.21.
In the case of `CC(C)O/N=C/c1ccc(-c2cccc(NC(=O)c3c(C(F)F)nn(C)c3F)c2)cc1` [compound 245], the logP under setting [2] stood at 4.46.
Turning to `Cn1nc(C(F)F)c(C(=O)Nc2cccc(-c3ccc([Si](C)(C)C)cc3)c2)c1F` [compound 239], under setting [1], the logP stood at 5.03.
Same read-out and setting: for `CC(C)c1cccc(-c2cccc(NC(=O)c3c(C(F)F)nn(C)c3F)c2)c1` [compound 214] the value was 4.41; for `Cn1nc(C(F)F)c(C(=O)Nc2cc3c(cc2Br)OC(F)(F)O3)c1F` [compound 196], 3.58; for `CC(C)O/N=C/c1ccc(-c2ccccc2NC(=O)c2c(C(F)F)nn(C)c2Cl)cc1` [compound 147], 4.63.
On the same count and under the same terms, for `Cn1nc(C(F)F)c(C(=O)Nc2ccccc2OC(F)(F)C(F)F)c1Cl` [compound 30] the value was 3.31; for `Cn1nc(C(F)F)c(C(=O)Nc2ccccc2OCc2ccccc2)c1Cl` [compound 159], 3.99.
Still for that read-out and setting: with `Cn1nc(C(F)F)c(C(=O)Nc2ccc3c(c2)OC(F)(F)C(F)(F)O3)c1F` [compound 199] the figure was 3.58; with `CO/N=C(\C)c1ccc(-c2ccccc2NC(=O)c2c(C(F)F)nn(C)c2Cl)cc1` [compound 130], 4.11.
`C/C(=N\OC(C)(C)C)c1ccc(-c2ccccc2NC(=O)c2c(C(F)F)nn(C)c2Cl)cc1` [compound 157] had a logP under setting [1] of 5.54.
Same read-out and setting: for `Cn1nc(C(F)F)c(C(=O)Nc2ccccc2-c2cccc(Cl)c2Cl)c1Cl` [compound 122] the value was 4.06.
Under setting [1], `Cc1cccc(NC(=O)c2c(C(F)F)nn(C)c2F)c1CCC(C)(C)C` [compound 16] yielded a log partition coefficient (logP) of 4.06.
Still for that read-out and setting: with `Cn1nc(C(F)F)c(C(=O)Nc2cccc(-c3cccc(Cl)c3Cl)c2)c1F` [compound 227] the figure was 3.99; with `COCCOc1cccc(NC(=O)c2c(C(F)F)nn(C)c2F)c1` [compound 180], 2.15; with `Cn1nc(C(F)F)c(C(=O)Nc2ccccc2-c2ccc(C(C)(C)C)cc2)c1Cl` [compound 110], 5.14.
Still for that read-out and setting: with `Cn1nc(C(F)F)c(C(=O)Nc2ccccc2Br)c1F` [compound 43] the figure was 2.82.
Under setting [2], `Cn1nc(C(F)F)c(C(=O)Nc2cccc(OCc3ccccc3)c2)c1F` [compound 252] registered a lipophilicity (logP) of 3.35.
Under setting [1], `Cn1nc(C(F)F)c(C(=O)Nc2ccccc2-c2ccc(C(F)(F)F)cc2)c1Cl` [compound 120] gave a logP of 3.94.
The same measure, in the same setting: for `Cn1nc(C(F)F)c(C(=O)Nc2ccccc2SCC2CC2(Cl)Cl)c1F` (centres unmarked) [compound 41] the value was 3.27; for `CC(C)Oc1cccc(-c2cccc(NC(=O)c3c(C(F)F)nn(C)c3F)c2)c1` [compound 221], 3.99.
Compound `Cn1nc(C(F)F)c(C(=O)Nc2cccc(-c3ccc(C(F)(F)F)cc3)c2)c1Cl` [compound 226] came in with a logP under setting [1] of 4.19.
`Cn1nc(C(F)F)c(C(=O)Nc2ccc(OC(F)(F)F)cc2Br)c1F` [compound 260] returned a log partition coefficient (logP) under setting [2] of 3.76.
As for `CC(C)COc1ccc(-c2ccccc2NC(=O)c2c(C(F)F)nn(C)c2F)cc1` [compound 131], the logP under setting [1] came out at 4.61.
Still for that read-out and setting: for `Cc1ccc(CCC(C)(C)C)c(NC(=O)c2c(C(F)F)nn(C)c2F)c1` [compound 17] the value was 4.29; for `CC(C)c1ccc(-c2ccccc2NC(=O)c2c(C(F)F)nn(C)c2Cl)cc1` [compound 97], 4.86.
Same read-out and setting: with `Cc1cccc(CCC(C)(C)C)c1NC(=O)c1c(C(F)F)nn(C)c1F` [compound 15] the figure was 3.85; with `CC(C)O/N=C/c1ccc(-c2ccccc2NC(=O)c2c(C(F)F)nn(C)c2F)cc1` [compound 146], 4.31.
On the same count and under the same terms, with `Cn1nc(C(F)F)c(C(=O)Nc2cccc(-c3cccc([Si](C)(C)C)c3)c2)c1F` [compound 237] the figure was 4.96.
Consider `Cn1nc(C(F)F)c(C(=S)Nc2ccccc2C2CC2C2CC2)c1Cl` (single isomer, unassigned) [Example 50], for which, under setting [1], the logP was 3.81.
On the same count and under the same terms, for `Cn1nc(C(F)F)c(C(=O)Nc2ccccc2-c2cc(Cl)cc(Cl)c2)c1Cl` [compound 128] the value was 4.31; for `Cn1nc(C(F)F)c(C(=O)Nc2cc(Cl)ccc2CCC(C)(C)C)c1F` [compound 18], 4.51; for `C=C(C)COc1cccc(NC(=O)c2c(C(F)F)nn(C)c2Cl)c1` [compound 177], 3.33.
Same read-out and setting: with `Cc1cc(C)cc(-c2cccc(NC(=O)c3c(C(F)F)nn(C)c3Cl)c2)c1` [compound 206] the figure was 4.34.
`Cn1nc(C(F)F)c(C(=O)Nc2cccc(-c3cccc(Cl)c3Cl)c2)c1Cl` [compound 228] showed a logP under setting [1] of 4.21.
Still for that read-out and setting: with `Cn1nc(C(F)F)c(C(=O)Nc2cccc3c2OC(F)(F)O3)c1F` [compound 62] the figure was 2.77; with `Cn1nc(C(F)F)c(C(=O)Nc2cccc(-c3ccc(F)cc3)c2)c1Cl` [compound 204], 3.59; with `CC(C)Oc1ccc(-c2cccc(NC(=O)c3c(C(F)F)nn(C)c3Cl)c2)cc1` [compound 224], 4.19.
Under setting [1], `Cn1nc(C(F)F)c(C(=O)Nc2ccccc2C(C)(C)C)c1Cl` [compound 4] gave a logP of 3.21.
Same read-out and setting: with `Cn1nc(C(F)F)c(C(=O)Nc2cccc(-c3cc(Cl)cc(Cl)c3)c2)c1Cl` [compound 232] the figure was 4.73; with `Cn1nc(C(F)F)c(C(=O)Nc2cccc(-c3ccc(F)c(Cl)c3)c2)c1F` [compound 217], 3.89.
The same measure, in the same setting: with `Cc1ccccc1Oc1ccccc1NC(=O)c1c(C(F)F)nn(C)c1F` [compound 160] the figure was 3.96; with `Cn1nc(C(F)F)c(C(=O)Nc2ccccc2-c2ccc(Cl)cc2Cl)c1Cl` [compound 124], 4.24.
Under setting [2], `Cn1nc(C(F)F)c(C(=O)Nc2cccc(Sc3ccccc3)c2)c1Cl` [compound 256] had a lipophilicity (logP) of 3.85.
On the same count and under the same terms, with `Cn1nc(C(F)F)c(C(=O)Nc2cccc(Oc3ccccc3)c2)c1Cl` [compound 251] the figure was 3.56.
`Cn1nc(C(F)F)c(C(=O)Nc2ccccc2-c2ccc(F)c(Cl)c2)c1F` [compound 102]: the logP under setting [1] was 3.60.
Still for that read-out and setting: with `Cn1nc(C(F)F)c(C(=O)Nc2ccccc2Sc2ccc(Cl)cc2)c1Cl` [compound 165] the figure was 4.63; with `CC(C)Oc1cccc(-c2cccc(NC(=O)c3c(C(F)F)nn(C)c3Cl)c2)c1` [compound 222], 4.21; with `CC(C)COc1ccc(-c2ccccc2NC(=O)c2c(C(F)F)nn(C)c2Cl)cc1` [compound 135], 4.96.

The values above are taken from patent US9375004B2 (Bayer Intellectual Property GmbH, priority 2010, dated 2016).
